“Also recorded” adds a separate entry of the source.
Key:
[1] = test system: acute leukemia cell lines; assay: Cell viability (MTS assay), acute leukemia cell lines; format: cell-based; conditions: 6/7 AML cell lines, forty-eight hours; read-out: IC50 (cell death)
Protocol: (§1) Cell viability of leukemia, myeloma, solid tumor and primary cells forty-eight hours after clioquinol treatment by MTS assay. Cell viability was assessed with the CellTiter96® Aqueous Non-Radioactive Assay kit according to manufactures' instructions (Promega). Apoptosis was measured by flow cytometry to detect cell surface Annexin V expression and propidium iodide (PI) uptake (Biovision, Mountain View, Calif., USA) as previously described (20) The inventors tested the effects of clioquinol on the viability of acute leukemia (n=7), myeloma (n=14), and solid tumor (n=5) cell lines as well as primary AML samples (n=6) and primary normal hematopoietic cells (n=3). Forty-eight hours after incubation, clioquinol induced cell death in 6/7 AML, 12/14 myeloma, 0/5 solid tumor, […] and 0/3 normal hematopoietic cells with an IC50 <20 μM (FIG. 5). Of note, after oral administration of clioquinol, trough serum concentrations of 20 μM can be achieved in patients (32).

cyclin D2 = assay: Immunoblotting of cyclin D2 in myeloma and leukemia cells; format: cell-based; conditions: low micromolar concentrations
Description: A) Effect of increasing concentrations of clioquinol on LP1 and MY5 multiple myeloma cells at twenty hours after clioquinol treatment; determined by SDS-PAGE immunoblotting. B) Effect of increasing concentrations of clioquinol on the G0/G1 ratio in AML3, U937, LP1 and MY5 cells at twenty hours after clioquinol treatment; determined by PI staining and flow cytometry. To prepare cytosolic extracts, NIH3T3 cells and myeloma cells were washed with phosphate-buffered saline (PBS, pH 7.4) and suspending in lysis buffer [10 mM Tris (pH 7.4), 150 mM NaCl, 0.1% Triton X-100, 0.5% sodium deoxycholate, and 5 mM EDTA] containing protease inhibitors (Complete tablets, Roche, Indianapolis, Ind.). Protein concentrations were determined by the Bradford assay. Immunoblot assays were performed by subjecting equal amounts of protein to SDS-PAGE gels followed by transfer to Nitrocellulose membranes. Membranes were probed with polyclonal rabbit anti-human cyclin D2 (0.5 μg/ml, both from Santa Cruz Biotech, Santa Cruz, Calif.), or monoclonal mouse-anti human p21 (1:200 v/v, Santa Cruz Biotech), monoclonal mouse-anti human p27 (1:2,500 v/v BD Transduction Laboratories), polyclonal mouse-anti human ubiquitin (1:2,000 v/v Calbiochem) and monoclonal mouse-anti-β-actin (1:10,000 v/v) (Sigma, St. Lois, Mo.). […] Detection was performed by the Enhanced Chemical Luminescence (ECL) method (Pierce, Rockford, Ill.).

[2] = test system: normal hematopoietic cells; assay: Cell viability (MTS assay), primary normal hematopoietic cells; format: cell-based, human; conditions: normal hematopoietic cells supplemented with copper
Protocol: as §1

[3] = test system: proteasome in normal hematopoietic cells; assay: Proteasome activity in normal hematopoietic cells (PBSC); format: cell-based, human
Protocol: Proteasome activity of primary acute myeloid leukemia (AML) blasts or normal peripheral blood stem cells (PBSC) after twenty hours of treatment with clioquinol (CQ), or an equimolar concentration of […] and CuCl2 (Cu). After treatment, the preferential chymotrypsin-like substrate Suc-LLVY-AMC was added and the rate of free AMC was measured over time with a florescent spectrophotometric plate reader (excitation=380 nm, emission=460 nm). Cellular proteins were extracted from cells with lysis buffer (50 mM HEPES pH 7.5, 150 mM NaCl, 2 mM ATP, and 1% Triton X-100). The chymotrypsin-like activity of the proteasome was measured by incubating equal amounts of protein with the preferential chymotrypsin-like substrate Suc-LLVY-AMC in assay buffer (50 mM Tris-HCl, pH 7.5, 150 mM NaCl) for two hours. After incubation, […] and the rate of free AMC was measured over time with a florescent spectrophotometric plate reader (excitation=380 nm, emission=460 nm). The inventors examined the effect of clioquinol and copper on primary AML cells and normal hematopoietic cells. Primary AML were obtained from the peripheral blood of patients with AML. Normal hematopoietic stem cells (PBSC) were obtained from the peripheral blood of volunteers donating stem cells for allotransplant. […] After incubation, cell lysates were prepared and the enzymatic activity of the proteasome measured as above.

[4] = test system: chymotrypsin-like activity of the proteasome; assay: Proteasome activity in cell lysates (Suc-LLVY-AMC cleavage); format: biochemical; conditions: cell lysates from leukemia and myeloma cell lines
Protocol: A) Proteasome activity of MDAY-D2 and JJN3 cellular extracts after two hours of treatment with clioquinol (CQ), CuCl2 (Cu), or an equimolar concentration of CQ and Cu. After treatment, the preferential chymotrypsin-like substrate Suc-LLVY-AMC was added and the rate of free AMC was measured over time with a florescent spectrophotometric plate reader (excitation=380 nm, emission=460 nm). B) Proteasome activity of intact MDAY-D2 and JJN3 cells after two hours of treatment with clioquinol (CQ), CuCl2 (Cu), or an equimolar concentration of CQ and Cu. After treatment, the preferential chymotrypsin-like substrate Suc-LLVY-AMC was added and the rate of free AMC was measured over time with a florescent spectrophotometric plate reader (excitation=380 nm, emission=460 nm). […] The chymotrypsin-like activity of the proteasome was measured by incubating equal amounts of protein with the preferential chymotrypsin-like substrate Suc-LLVY-AMC in assay buffer (50 mM Tris-HCl, pH 7.5, 150 mM NaCl) for two hours. After incubation, […] and the rate of free AMC was measured over time with a florescent spectrophotometric plate reader (excitation=380 nm, emission=460 nm). […] The chymotrypsin-like activity of the proteasome was measured by monitoring the rate of cleavage of the fluorescent substrate Suc-LLVY-AMC.

## Oc1c(I)cc(Cl)c2cccnc12 [clioquinol, 5-chloro-7-iodo-8-hydroxyquinoline]
[1]
  IC50: < 20 µM
Cyclin D2
  levels of cyclin D2: reduced levels of cyclin D2
[2]
  potency of clioquinol: increased the potency of clioquinol
[3]
  enzymatic activity of the proteasome: no effect; also recorded: no proteasomal inhibition was detected
[4]
  rate of Suc-LLVY-AMC cleavage: inhibited the rate of Suc-LLVY-AMC cleavage
